Test [1] deals with Puccinia recondita f. sp. tritici. The experiment in a line: Puccinia recondita (brown rust), curative, wheat leaf segments. It is filed as in vivo. The conditions noted are these: foliar, 192 h, sprayed 1 day after inoculation, 8 dpi, compared to untreated control. The method, then:
Wheat leaf segments are placed on agar in multiwell plates (24-well format). The leaf segments are inoculated with a spore suspension of the fungus and sprayed with test solutions 1 day after inoculation. After appropriate incubation the activity of a compound is assessed 8 dpi (days after inoculation) as curative fungicidal activity.

In a further test the test system is Phakopsora pachyrhizi. Description: Phakopsora pachyrhizi (soybean rust), soybean leaf disks, preventive. Type of test: in vivo. The conditions noted are these: foliar, 288 h, approx. 12 dpi, compared to untreated control. The method, then: Soybean leaf disks are placed on agar in multiwell plates (24-well format) and sprayed with test solutions. After drying, the leaf disks are inoculated with a spore suspension of the fungus. After appropriate incubation the activity of a compound is assessed approx. 12 dpi (days after inoculation) as preventive fungicidal activity.

Another test relates to Alternaria solani. The experiment in a line: Alternaria solani (early blight of tomatoes), tomato leaf disks. The conditions noted are these: foliar, inoculated 2 days after application, compared to untreated control. It is filed as in vivo. The method, then: Alternaria solani (Early Blight of Tomatoes) Tomato leaf disks are placed on agar in multiwell plates (24-well format) and sprayed with the formulated test compound diluted in water. The leaf disks are inoculated with a spore suspension of the fungus 2 days after application. The inoculated leaf disks are incubated at 23° C./21° C.

For a further test, the system named is Plasmopara viticola. Description: Plasmopara viticola (downy mildew of grapevine), grape vine leaf disks, preventive. It is filed as in vivo. The conditions noted are these: foliar, 168 h, 7 dpi, compared to untreated control. The method, then: Grape vine leaf disks are placed on agar in multiwell plates (24-well format) and sprayed with test solutions. After drying, the leaf disks are inoculated with a spore suspension of the fungus. After appropriate incubation the activity of a compound is assessed 7 dpi (days after inoculation) as preventive fungicidal activity.

In test [2] the test system is Erysiphe graminis f. sp. tritici. The experiment in a line: Erysiphe graminis f. sp. tritici (wheat powdery mildew), wheat leaf segments, preventive. The conditions noted are these: Blumeria graminis, foliar, 168 h, 7 dpi, compared to untreated control. Type of test: in vivo. As for the experimental part: Wheat leaf segments are placed on agar in multiwell plates (24-well format) and sprayed with test solutions. After drying, the leaf disks are inoculated with spores of the fungus. After appropriate incubation the activity of a compound is assessed 7 dpi (days post inoculation) as preventive fungicidal activity.

The test system of the next test is Glomerella lagenarium. The experiment in a line: Glomerella lagenarium syn. Colletotrichum lagenarium (anthracnose of cucurbits), liquid culture growth inhibition. It is filed as cell-based. The conditions noted are these: Colletotrichum orbiculare, nutrient broth (PDB), 72 hrs, photometric at 620 nm, compared to untreated control. As for the experimental part:
Glomerella lagenarium Syn. Colletotrichum lagenarium (Anthracnose of Cucurbits): Conidia of the fungus from cryogenic storage were directly mixed into nutrient broth (PDB potato dextrose broth). A DMSO solution of the test compounds was placed into a microtiter plate (96-well format) and the nutrient broth containing the fungal spores was added to it. The test plates were incubated at 24° C. and the inhibition of growth was determined photometrically after 72 hrs at 620 nm. […]

For the next test, the system named is Mycosphaerella arachidis. The experiment in a line: Mycosphaerella arachidis syn. Cercospora arachidicola (brown leaf spot of peanut), liquid culture growth inhibition. Type of test: cell-based. The conditions noted are these: nutrient broth (PDB), approximately 5-6 days, photometric at 620 nm, compared to untreated control. The method, then: Conidia of the fungus from cryogenic storage were directly mixed into nutrient broth (PDB potato dextrose broth). A DMSO solution of the test compounds was placed into a microtiter plate (96-well format) and the nutrient broth containing the fungal spores was added to it. The test plates were incubated at 24° C. and the inhibition of growth was determined photometrically after approximately 5-6 […] at 620 nm.

In test [3] the test system is Puccinia recondita f. sp. tritici. Description: Puccinia recondita (brown rust), preventative, wheat leaf segments. Type of test: in vivo. The conditions noted are these: foliar, 192 h, 8 dpi, compared to untreated control. The method, then: Wheat leaf segments are placed on agar in multiwell plates (24-well format) and sprayed with test solutions. After drying, the leaf segments are inoculated with a spore suspension of the fungus. After appropriate incubation the activity of a compound is assessed 8 dpi (days after inoculation) as preventative fungicidal activity.

Another test concerns Pyricularia oryzae. Description: whole plant or invertebrate. It is filed as in vivo. The conditions noted are these: foliar, 120 h, read-out: control of Pyricularia oryzae.
A further test has as its system Monographella nivalis. The experiment in a line: Monographella nivalis syn. Microdochium nivale (snow mould, foot rot of cereals), liquid culture growth inhibition. The conditions noted are these: nutrient broth (PDB), 72 hrs, photometric at 620 nm, compared to untreated control. It is filed as cell-based. The method, then:
Conidia of the fungus from cryogenic storage were directly mixed into nutrient broth (PDB potato dextrose broth). A DMSO solution of the test compounds was placed into a microtiter plate (96-well format) and the nutrient broth containing the fungal spores was added to it. The test plates were incubated at 24° C. and the inhibition of growth was determined photometrically after 72 hrs at 620 nm. […] Cercospora arachidicola (Brown Leaf Spot of Peanut): […]

The next test concerns Phytophthora infestans. The experiment in a line: whole plant or invertebrate. Type of test: in vivo. The conditions noted are these: in Solanum lycopersicum, foliar, 96 h, read-out: control of Phytophthora infestans.

For orientation: inhibition of growth means the change of the read-out against control, counted positive when it falls. Higher therefore signals a strong effect. Take `CO/C=C(\Oc1cc(C2CCC(=NOC)CC2)ccc1C)C(=O)OC` (stereo not drawn) [E.20, methyl (Z)-3-methoxy-2-[5-(4-methoxyimino-cyclohexyl)-2-methyl-phenoxy]prop-2-enoate]: the pest or weed control at 200 ppm (in test [1]; in the test with Alternaria solani; with Plasmopara viticola; in [2]; in test [3]; in the test on Pyricularia oryzae) was at least 80% throughout. In the test on Phakopsora pachyrhizi, this compound displayed a pest or weed control at 60 ppm of at least 70%. The inhibition of growth at 20 ppm in the test on Glomerella lagenarium, in the test with Mycosphaerella arachidis and with Monographella nivalis was at least 80% each time.
As for `CO/C=C(\Oc1cc(C2=CCC(C(F)F)CC2)ccc1C)C(=O)OC` (stereo not drawn) [F.7, methyl (Z)-2-[5-[4-(difluoromethyl)cyclohexen-1-yl]-2-methyl-phenoxy]-3-methoxy-prop-2-enoate], the pest or weed control at 200 ppm (in [1]; in the test with Alternaria solani; in the test with Plasmopara viticola; in [2]; in [3]) was at least 80% throughout. The inhibition of growth at 20 ppm with Glomerella lagenarium, in the test on Mycosphaerella arachidis and with Monographella nivalis was at least 80% each time.
With `CO/C=C(\Oc1cc(C2CCC(OC(F)F)CC2)ccc1C)C(=O)OC` (stereo not drawn) [E.23, methyl (Z)-2-[5-[4-(difluoromethoxy)cyclohexyl]-2-methyl-phenoxy]-3-methoxy-prop-2-enoate], the pest or weed control at 200 ppm (with Alternaria solani; in the test on Plasmopara viticola; in [2]; in test [3]; in the test on Pyricularia oryzae) was at least 80% each time. The inhibition of growth at 20 ppm in the test with Glomerella lagenarium, in the test on Mycosphaerella arachidis and in the test with Monographella nivalis was at least 80% each time.
Consider `CO/C=C(\Oc1cc(C2CCC2)ccc1C)C(=O)OC` [E.12, methyl (Z)-2-(5-cyclobuty1-2-methyl-phenoxy)-3-methoxy-prop-2-enoate], for which the pest or weed control at 200 ppm (in [1]; in the test with Plasmopara viticola; in test [2]; in test [3]; in the test with Pyricularia oryzae) was at least 80% throughout. Besides, the pest or weed control at 60 ppm in the test with Phakopsora pachyrhizi is at least 70%. The inhibition of growth at 20 ppm in the test with Glomerella lagenarium, in the test with Mycosphaerella arachidis and in the test on Monographella nivalis was at least 80% each time.
As for `CO/C=C(\Oc1cc(C2CC(C)(C)CCC2=O)ccc1C)C(=O)OC` (stereo not drawn) [E.5, methyl (Z)-2-[5-(5,5-dimethyl-2-oxo-cyclohexyl)-2-methyl-phenoxy]-3-methoxy-prop-2-enoate], the pest or weed control at 200 ppm (with Plasmopara viticola; in the test with Phytophthora infestans; in test [2]; in [3]) was at least 80% throughout.
In the case of `CCON=C1CCC(c2ccc(C)c(O/C(=C\OC)C(=O)OC)c2)CC1` (stereo not drawn) [E.21, methyl (Z)-2-[5-(4-ethoxyiminocyclohexyl)-2-methyl-phenoxy]-3-methoxy-prop-2-enoate], the pest or weed control at 200 ppm (in [1]; in the test on Plasmopara viticola; in test [2]; in [3]; with Pyricularia oryzae) was at least 80% throughout. The same compound showed a pest or weed control at 60 ppm in the test on Phakopsora pachyrhizi of at least 70%. The inhibition of growth at 20 ppm with Glomerella lagenarium, in the test with Mycosphaerella arachidis and in the test on Monographella nivalis was at least 80% in each case.
As for `CO/C=C(\Oc1cc(C2=CCCCC2)ccc1C)C(=O)OC` [F.2, methyl (Z)-2-[5-(cyclohexen-1-yl)-2-methyl-phenoxy]-3-methoxy-prop-2-enoate], the pest or weed control at 200 ppm (in test [1]; with Plasmopara viticola; in test [2]; in test [3]) was at least 80% each time. In the test on Phakopsora pachyrhizi, this compound came in with a pest or weed control at 60 ppm of at least 70%. In the test on Glomerella lagenarium, this compound displayed an inhibition of growth at 20 ppm of at least 80%.
Turning to `CO/C=C(\Oc1cc(C2=CCCCC2)c(F)cc1C)C(=O)OC` [F.6, methyl (Z)-2-[5-(cyclohexen-1-yl)-4-fluoro-2-methyl-phenoxy]-3-methoxy-prop-2-enoate], the pest or weed control at 200 ppm (in test [1]; in the test on Plasmopara viticola; in [2]; in test [3]) was at least 80% each time. Further, the pest or weed control at 60 ppm in the test on Phakopsora pachyrhizi was at least 70%. In addition, the inhibition of growth at 20 ppm in the test on Glomerella lagenarium, in the test with Mycosphaerella arachidis and in the test on Monographella nivalis was at least 80% in each case.
In the case of `CO/C=C(\Oc1cc(C2=CCCC2)ccc1C)C(=O)OC` [F.4, methyl (Z)-2-[5-(cyclopenten-l-yI)-2-methyl-phenoxy]-3-methoxy-prop-2-enoate], the pest or weed control at 60 ppm with Phakopsora pachyrhizi was at least 70%. Also, the pest or weed control at 200 ppm (with Plasmopara viticola; in [2]; in test [3]) was at least 80% each time. In addition, the inhibition of growth at 20 ppm with Glomerella lagenarium, with Mycosphaerella arachidis and in the test on Monographella nivalis was at least 80% throughout.
Consider `CO/C=C(\Oc1cc(C2=CCC(F)(F)CC2)ccc1C)C(=O)OC` [F.3, methyl (Z)-2-[5-(4,4-difluorocyclohexen-1-yl)-2-methyl-phenoxy]-3-methoxy-prop-2-enoate], for which the pest or weed control at 60 ppm in the test on Phakopsora pachyrhizi is at least 70%. For the same compound, the pest or weed control at 200 ppm (with Plasmopara viticola; in test [2]; in test [3]) was at least 80% in each case. Moreover, the inhibition of growth at 20 ppm with Glomerella lagenarium, with Mycosphaerella arachidis and in the test on Monographella nivalis was at least 80% each time.
Turning to `CO/C=C(\Oc1cc(C2=CC(C)(C)CCC2=O)ccc1C)C(=O)OC` [F.1, methyl (Z)-2-[5-(3,3-dimethyl-6-oxo-cyclohexen-1-yl)-2-methyl-phenoxy]-3-methoxy-prop-2-enoate], the pest or weed control at 200 ppm (in the test on Alternaria solani; with Plasmopara viticola; in test [2]; in test [3]; in the test on Pyricularia oryzae) was at least 80% in each case. The inhibition of growth at 20 ppm with Glomerella lagenarium is at least 80%.
The compound `CO/C=C(\Oc1cc(C2CC2)ccc1C)C(=O)OC` [E.14, methyl (Z)-2-(5-cyclopropy1-2-methyl-phenoxy)-3-methoxy-prop-2-enoate] gave a pest or weed control at 60 ppm in the test with Phakopsora pachyrhizi of at least 70%. Besides, the pest or weed control at 200 ppm (in the test with Plasmopara viticola; in test [2]; in [3]) was at least 80% each time. Further, the inhibition of growth at 20 ppm with Glomerella lagenarium, in the test on Mycosphaerella arachidis and in the test on Monographella nivalis was at least 80% each time.
Consider `CO/C=C(\Oc1cc(C2CCCCCC2)ccc1C)C(=O)OC` [E.3, methyl (Z)-2-(5-cyclohepty1-2-methyl-phenoxy)-3-methoxy-prop-2-enoate], for which the pest or weed control at 200 ppm (in the test on Plasmopara viticola; in test [2]; in test [3]; with Pyricularia oryzae) was at least 80% each time. In addition, the inhibition of growth at 20 ppm in the test on Glomerella lagenarium, with Mycosphaerella arachidis and in the test on Monographella nivalis was at least 80% in each case.

Values taken from patent US12262710B2, “Fungicidal compounds” (SYNGENTA CROP PROTECTION AG, priority 2019, dated 2025).
